# Results taken from EP2697230B1, “COMPOUNDS FOR THE TREATMENT OF HEPATITIS C” (priority 2011, dated 2012).
# Test system: HCV pseudoparticles, genotype 1a HCV E1 and E2 envelope (H77C isolate)
# Assay: HCV pseudoparticle infection assay (luciferase reporter, Huh7 cells)
# Format: cell-based
# Conditions: Hepatitis C virus, Huh-7, 48 h, read-out: EC50 (nM) 1a (H77C), class symbol, HCV pseudoparticles genotype 1a (H77C), luciferase 2 days after infection
row,SMILES,EC50 [nM]
1,CC(C)OC(=O)N1CCCCOc2ccc(cc2)CNc2nc(nc(OCC(F)(F)F)n2)Nc2ccc(cc2)C(=O)NCCC1 [Example 4025],0.1 to 100
2,CC(C)(C)OC(=O)N1CCCCOc2ccc(cc2)CNc2nc(nc(OCC(F)(F)F)n2)Nc2ccc(cc2)C(=O)NCCC1 [Example 4026],0.1 to 100
3,CNC(=O)N1CCCCOc2ccc(cc2)CNc2nc(nc(OCC(F)(F)F)n2)Nc2ccc(cc2)C(=O)NCCC1 [Example 4030],0.1 to 100
4,CCNC(=O)N1CCCCOc2ccc(cc2)CNc2nc(nc(OCC(F)(F)F)n2)Nc2ccc(cc2)C(=O)NCCC1 [Example 4031],0.1 to 100
5,CC(C)NC(=O)N1CCCCOc2ccc(cc2)CNc2nc(nc(OCC(F)(F)F)n2)Nc2ccc(cc2)C(=O)NCCC1 [Example 4032],0.1 to 100
6,CC(C)(C)NC(=O)N1CCCCOc2ccc(cc2)CNc2nc(nc(OCC(F)(F)F)n2)Nc2ccc(cc2)C(=O)NCCC1 [Example 4034],0.1 to 100
7,COCC(=O)N1CCCCNC(=O)c2ccc(cc2)Nc2nc(nc(OCC(F)(F)F)n2)NCc2ccc(cc2)OCC1 [Example 4035],0.1 to 100
8,CNC(=O)N1CCCCNC(=O)c2ccc(cc2)Nc2nc(nc(OCC(F)(F)F)n2)NC2(CC2)c2ccc(cc2)OCCC1 [Example 5004],0.1 to 100
9,CC(C)(C)OC(=O)N1CCCCNC(=O)c2ccc(cc2)Nc2nc(nc(OCC(F)(F)F)n2)NC2(CC2)c2ccc(cc2)OCCC1 [Example 5006],0.1 to 100
10,CC(C)(C)OC(=O)N1CCCOc2ccc(cc2)CNc2nc(nc(OCC(F)(F)F)n2)Nc2ccc(cc2)C(=O)NCC1 [Example 6002],0.1 to 100
11,COC(=O)N1CCCOc2ccc(cc2)CNc2nc(nc(OCC(F)(F)F)n2)Nc2ccc(cc2)C(=O)NCC1 [Example 6006],0.1 to 100
12,O=C1NCCCNCCCOc2ccc(cc2)CNc2nc(nc(OCC(F)(F)F)n2)Nc2ccc1cc2 [Example 6011],0.1 to 100
13,CCNC(=O)N1CCCNC(=O)c2ccc(cc2)Nc2nc(nc(OCC(F)(F)F)n2)NCc2ccc(cc2)OCCC1 [Example 6012],0.1 to 100
14,COC(=O)N1CCCNC(=O)c2ccc(cc2)Nc2nc(nc(OCC(F)(F)F)n2)NCc2ccc(cc2)OCCC1 [Example 6014],0.1 to 100
15,CCOC(=O)N1CCCNC(=O)c2ccc(cc2)Nc2nc(nc(OCC(F)(F)F)n2)NCc2ccc(cc2)OCCC1 [Example 6015],0.1 to 100
16,CCCOC(=O)N1CCCNC(=O)c2ccc(cc2)Nc2nc(nc(OCC(F)(F)F)n2)NCc2ccc(cc2)OCCC1 [Example 6016],0.1 to 100
17,CC(C)(C)OC(=O)N1CCCNC(=O)c2ccc(cc2)Nc2nc(nc(OCC(F)(F)F)n2)NCc2ccc(cc2)OCCC1 [Example 6017],0.1 to 100
18,CN1CCCNC(=O)c2ccc(cc2)Nc2nc(nc(OCC(F)(F)F)n2)NCc2ccc(cc2)OCCC1 [Example 6018],0.1 to 100
19,CCCCN1CCCNC(=O)c2ccc(cc2)Nc2nc(nc(OCC(F)(F)F)n2)NCc2ccc(cc2)OCCC1 [Example 6019],0.1 to 100
20,CC(C)CN1CCCNC(=O)c2ccc(cc2)Nc2nc(nc(OCC(F)(F)F)n2)NCc2ccc(cc2)OCCC1 [Example 6020],0.1 to 100
21,CNC(=O)N1CCCCNC(=O)c2ccc(cc2)Nc2nc(nc(OCC(F)(F)F)n2)NCc2ccc(cc2)OCCC1 [Example 6021],0.1 to 100
22,CCNC(=O)N1CCCCNC(=O)c2ccc(cc2)Nc2nc(nc(OCC(F)(F)F)n2)NCc2ccc(cc2)OCCC1 [Example 6022],0.1 to 100

row,SMILES,EC50 [nM]
1,CC(C)(C)NC(=O)N1CCCCNC(=O)c2ccc(cc2)Nc2nc(nc(OCC(F)(F)F)n2)NCc2ccc(cc2)OCCC1 [Example 6023],0.1 to 100
2,CC1(C)CNCCCOc2ccc(cc2)CNc2nc(nc(OCC(F)(F)F)n2)Nc2ccc(cc2)C(=O)NC1 [Example 6024],0.1 to 100
3,CC(C)N1CCCNC(=O)c2ccc(cc2)Nc2nc(nc(OCC(F)(F)F)n2)NCc2ccc(cc2)OCCC1 [Example 6025],0.1 to 100
4,CCN1CCCNC(=O)c2ccc(cc2)Nc2nc(nc(OCC(F)(F)F)n2)NCc2ccc(cc2)OCCC1 [Example 6026],0.1 to 100
5,CCCN1CCCNC(=O)c2ccc(cc2)Nc2nc(nc(OCC(F)(F)F)n2)NCc2ccc(cc2)OCCC1 [Example 6027],0.1 to 100
6,CCNC(=O)N1CCCOc2ccc(cc2)CNc2nc(nc(OCC(F)(F)F)n2)Nc2ccc(cc2)C(=O)NCC(C)(C)C1 [Example 6028],0.1 to 100
7,CCCNC(=O)N1CCCOc2ccc(cc2)CNc2nc(nc(OCC(F)(F)F)n2)Nc2ccc(cc2)C(=O)NCC(C)(C)C1 [Example 6030],0.1 to 100
8,CC1(C)CNC(=O)c2ccc(cc2)Nc2nc(nc(OCC(F)(F)F)n2)NCc2ccc(cc2)OCCCN(C(=O)NC(C)(C)C)C1 [Example 6031],0.1 to 100
9,COC(=O)N1CCCOc2ccc(cc2)CNc2nc(nc(OCC(F)(F)F)n2)Nc2ccc(cc2)C(=O)NCC(C)(C)C1 [Example 6032],0.1 to 100
10,CCCOC(=O)N1CCCOc2ccc(cc2)CNc2nc(nc(OCC(F)(F)F)n2)Nc2ccc(cc2)C(=O)NCC(C)(C)C1 [Example 6034],0.1 to 100
11,CC(C)OC(=O)N1CCCOc2ccc(cc2)CNc2nc(nc(OCC(F)(F)F)n2)Nc2ccc(cc2)C(=O)NCC(C)(C)C1 [Example 6035],0.1 to 100
12,CC1(C)CNC(=O)c2ccc(cc2)Nc2nc(nc(OCC(F)(F)F)n2)NCc2ccc(cc2)OCCCN(C(=O)OC(C)(C)C)C1 [Example 6036],0.1 to 100
13,CC(C)NC(=O)N1CCCOc2ccc(cc2)CNc2nc(nc(OCC(F)(F)F)n2)Nc2ccc(cc2)C(=O)NCC(C)(C)C1 [Example 6037],0.1 to 100
14,CNC(=O)N1CCCOc2ccc(cc2)CNc2nc(nc(OCC(F)(F)F)n2)Nc2ccc(cc2)C(=O)NCC(C)(C)C1 [Example 6038],0.1 to 100
15,CN1CCCOc2ccc(cc2)CNc2nc(nc(OCC(F)(F)F)n2)Nc2ccc(cc2)C(=O)NCC(C)(C)C1 [Example 6040],0.1 to 100
16,CCN1CCCOc2ccc(cc2)CNc2nc(nc(OCC(F)(F)F)n2)Nc2ccc(cc2)C(=O)NCC(C)(C)C1 [Example 6041],0.1 to 100
17,COC(=O)N1CCCCCCCCNc2nc(nc(OCC(F)(F)F)n2)Nc2ccc(cc2)C(=O)NCCC1 [Example 9003],0.1 to 100
18,CCCOC(=O)N1CCCCCCCCNc2nc(nc(OCC(F)(F)F)n2)Nc2ccc(cc2)C(=O)NCCC1 [Example 9004],0.1 to 100
19,CNC(=O)N1CCCCCCCCNc2nc(nc(OCC(F)(F)F)n2)Nc2ccc(cc2)C(=O)NCCC1 [Example 9006],0.1 to 100
20,CC(C)(C)NC(=O)N1CCCCCCCCNc2nc(nc(OCC(F)(F)F)n2)Nc2ccc(cc2)C(=O)NCCC1 [Example 9008],0.1 to 100
21,CC(=O)N1CCCCCCCCNc2nc(nc(OCC(F)(F)F)n2)Nc2ccc(cc2)C(=O)NCCC1 [Example 9009],0.1 to 100

# Same assay, conditions: Hepatitis C virus, Huh-7, 48 h, read-out: EC50 (nM) 1a (H77C), numeric value, HCV pseudoparticles genotype 1a (H77C), luciferase 2 days after infection
row,SMILES,EC50 [nM]
1,COCC(=O)N1CCCCNC(=O)c2ccc(cc2)Nc2nc(nc(OCC(F)(F)F)n2)NCc2ccc(cc2)OCC1 [Example 4035],4.37
2,CCNC(=O)N1CCCNC(=O)c2ccc(cc2)Nc2nc(nc(OCC(F)(F)F)n2)NCc2ccc(cc2)OCCC1 [Example 6012],6.1
3,COC(=O)N1CCCNC(=O)c2ccc(cc2)Nc2nc(nc(OCC(F)(F)F)n2)NCc2ccc(cc2)OCCC1 [Example 6014],1.51
4,CCNC(=O)N1CCCCNC(=O)c2ccc(cc2)Nc2nc(nc(OCC(F)(F)F)n2)NCc2ccc(cc2)OCCC1 [Example 6022],11.8

# Same assay, conditions: class symbol, HCV pseudoparticles genotype 1a (H77C), luciferase 2 days after infection, read-out: EC50 (nM) 1a (H77C)
row,SMILES,EC50 [nM]
1,O=C1NCCCNCCCOc2ccc(cc2)C2(CC2)Nc2nc(nc(OCC(F)(F)F)n2)Nc2ccc1cc2 [Example 5001],0.1 to 100
2,O=C1NCCCNCCCCCCCCNc2nc(nc(OCC(F)(F)F)n2)Nc2ccc1cc2 [Example 9001],100 to 1000

# Same assay, conditions: numeric value, HCV pseudoparticles genotype 1a (H77C), luciferase 2 days after infection, read-out: EC50 (nM) 1a (H77C)
row,SMILES,EC50 [nM]
1,O=C1NCCCNCCCCCCCCNc2nc(nc(OCC(F)(F)F)n2)Nc2ccc1cc2 [Example 9001],243
